Measurements published in publication PMC3039689, “Identification of Small Molecule Lead Compounds for Visceral Leishmaniasis Using a Novel Ex Vivo Splenic Explant Model System” (PLoS Neglected Tropical Diseases, 2011).
Read-outs that look alike come from different tables or passages of the source.

Key:
[1] = Cell toxicity (CC50) in the HepG2 cell line, CellTiter-Glo; assay type: cell-based, human; conditions: human
Description: After 24 hours of culture at 37°C the number of viable cells was determined by quantification of the ATP present in the cell using the CellTiter-Glo luminescent Cell Viability Assay (Promega).

[2] = test system: luciferase-transfected Leishmania donovani; test: Anti-leishmanial efficacy (EC50) in the ex vivo splenic explant model; assay type: cell-based
Description: To establish the plate assay for drug screening, the spleens from 2 infected hamsters were aseptically removed and placed in a Petri dish containing 5 mL of Collagenase D (Roche) at 2 mg/mL of buffer (10 mM Hepes pH 7.4, 150 mM NaCl, 5 mM KCl, 1 mM MgCl2, 1.8 mM CaCl2). The spleen was infiltrated by injection with approximately 2 mL of Collagenase solution, the tissue was cut into small pieces using sharp scissors, and incubated for 20 minutes at 37°C. The cell suspension and remaining tissue fragments were gently passed through a 100 µm cell strainer (B–D) to obtain a single cell suspension, which was washed twice by centrifugation (500 g for 7 min at 4°C) and re-suspended in culture medium composed of DMEM (Gibco), 5% FBS, 1 mM Sodium pyruvate (Gibco), 1X MEM amino acids solution (Sigma), 0.02% v/v/EDTA, 10 mM HEPES buffer (Cellgro) and 100 IU/mL Penicillin/100 […] Streptomycin solution (Cellgro).
The anti-leishmanial efficacy of the compounds was determined using the splenic explant model in a 96-well plate format. […] Because variation in the parasite burden between different explant cultures was expected, the concentration of cells used in each experiment was adjusted to give approximately 100 counts by luminometry (equivalent to ∼240,000 parasites). The number of surviving parasites was determined by luminometry as described above.

[3] = test system: LUC-transfected L. donovani; test: Anti-leishmanial efficacy (EC50) in in vitro infected peritoneal macrophages; assay type: cell-based, Leishmania donovani; conditions: 48 h, read-out: Peritoneal Macrophages EC50 (mean±SE)
Description: Macrophages from uninfected hamsters were obtained by peritoneal lavage with DMEM (Gibco) and Heparin (2 units/ml; Elkins-Sinn, Cherry Hill NJ). The cells were washed twice by centrifugation and re-suspended in culture medium composed of DMEM, 5% FBS, 1 mM sodium pyruvate (Gibco), 1X MEM amino acids solution (Sigma), 0.02% v/v/EDTA and 10 mM HEPES buffer (Cellgro). The peritoneal macrophages were adjusted to 5×10^5 cells/ml and allowed to adhere overnight at 37°C and 5% CO2 in flat bottom 96-well plates. Adherent macrophages were infected at 1∶5 ratio (cells:parasites) with stationary phase LUC-transfected L. donovani promastigotes and cultured at 37°C, 5% CO2, for 2 h. The extracellular parasites were then removed by washing with warm Dulbeco's PBS (Gibco). Infected macrophages were exposed to 2-fold serial dilutions of test compounds as described above for the ex vivo culture system. The infected macrophages were incubated for 48 hr in 5% CO2 atmosphere at 37°C. The number of surviving parasites was determined by luminometry and the effective concentration (EC50) calculated by linear regression (GraphPad Prism 5.0) as described above for the ex vivo system. The mean and standard error of the EC50 from 3 different experiments were considered as the final EC50. […] Tilorone was obtained from Hangzhou Trylead Chemical Tech (China). All compounds were dissolved in sterile dimethyl sulfoxide (analytical grade, cell culture tested; Sigma) and stored frozen at −20°C until used.

Leishmania donovani = test: Discrimination between amphotericin B treated and untreated splenic explant cultures at serial dilutions of cells; assay type: cell-based; conditions: AMB 0.126 µg/mL, 48 h; for Parasite counts, Treated (AMB): mean ± SD; for Reduction in parasite burden: with reference to controls
splenocytes [4] = test system: splenocytes
[5] = test system: luciferase-transfected Leishmania donovani; test: Primary screening of compound libraries in the ex vivo splenic explant model (Z score); assay type: cell-based; conditions: 10 µM; for Outcome of library screening (significant Z score / hit): compounds as included in the libraries
Text: The following chemical libraries in 96-well plate format were screened: NINDS Custom Collection II (MicroSource Discovery Systems, Inc.), which consists of 1,040 classical therapeutic agents, established experimental inhibitors, receptor agonist drugs and other bioactive compounds [24], [25], [26]; the Pure Natural Products library (MicroSource Discovery Systems, Inc.) a collection of 800 pure natural products and derivatives; and The Diversity Set and Natural Products set (Developmental Therapeutics Program, NCI/NIH) a set of 2,195 compounds selected from the almost 140,000 compounds based on diversity of structure, [28], [29]. Libraries containing the compounds at 10 mM concentration in DMSO were diluted into master plates at 200 µM concentration in DMEM. The 200 µM master plates were further diluted by transferring an aliquot of 5 µl into a 96-well sterile white-bottom plate (Costar) containing 45 µl of culture medium at 4°C. Splenocytes (100,000 in 50 µl of culture medium) that had been obtained from infected hamsters as described above were added to the assay plate for a final drug concentration of 10 µM. The positive control (splenocytes treated with 0.2 µM Amphotericin B) and negative controls (0.1% DMSO vehicle) were distributed in the two outer columns (8 wells each) of each plate in alternating fashion to minimize any edge effect. After 48 hours of culture at 37°C in a humidified atmosphere and 5% CO2, the plates were centrifuged at 500 g for 7 min, the supernatant discarded using a multi- channel vacuum aspirator (Costar), and 20 µl of 1X cell culture lysis reagent (Promega) was added to the cells. To complete the lysis procedure the plates were frozen at −70°C and then thawed, and the luciferase activity determined in a plate luminometer following addition of 100 µl of the luciferin substrate at room temperature (Promega). The Z score was calculated for each compound as the mean counts of the compound tested minus the mean counts of all compounds in the plate divided by the SD all compounds in the plate. The mean Z score for each drug was calculated based on duplicate screenings performed in two different experiments. A Z score of ≤–1.96, which corresponds to a p value of ≤0.05 (95% confidence limit), was used as the threshold to identify the hits. […] The quality of each assay was determined by calculating the Z prime (Z') factor [31], which measures the discrimination between positive and negative controls in the screen. The Z' factor was calculated as 1 – [(3SD positive controls +3SD negative controls)/absolute value of (mean of the positive controls – mean of the negative controls)].

splenocytes [6] = test: Flow cytometry of propidium iodide stained splenocytes cultured with test compound; conditions: 48 hr culture period, data not shown
[7] = Leishmania donovani, ex vivo splenic explant, 48 h, luminometry, at least two experiments, compound from screened library, read-out: Ex vivo model EC50 Mean
[8] = Leishmania donovani, 48 h, 48 h of culture, luminometry, purchased compounds dissolved in DMSO, read-out: Ex vivo model EC50 (mean±SE)
[9] = Leishmania donovani, Peritoneal macrophage, hamster peritoneal macrophages infected in vitro, luminometry, purchased compounds

CCCCCC[C@H]1C(=O)O[C@H](C)[C@H](NC(=O)c2cccc(NC=O)c2O)C(=O)O[C@@H](C)[C@@H]1OC(=O)CC(C)C [ANTIMYCIN A]
CC50 at 24 h ([1]; HepG2 cell line, 24 h, ATP luminescence, compound from screened library, read-out: HepG2 CC50 Mean): 58.4 µM | EC50 ([2]; Leishmania donovani, 50% reduction in parasite counts in the ex vivo model, read-out: EC50 Mean (Table S2)): 11.6 µM | EC50 ([2]; Leishmania donovani, 48 h of culture, luminometry, purchased compounds dissolved in DMSO, read-out: Ex vivo model EC50 (mean±SE)): 1.27 ± 1.07 µM | EC50 [2, 7]: 11.6 µM | EC50 ([3]; Leishmania donovani, Peritoneal macrophage, in Mesocricetus auratus): 1.67 ± 1.05 µM

C[C@@H]1[C@H](O)[C@@H](C)/C=C/C=C/C=C/C=C/C=C/C=C/C=C/[C@H](O[C@@H]2O[C@H](C)[C@@H](O)[C@H](N)[C@@H]2O)C[C@@H]2O[C@](O)(C[C@@H](O)C[C@@H](O)[C@H](O)CC[C@@H](O)C[C@@H](O)CC(=O)O[C@H]1C)C[C@H](O)[C@H]2C(=O)O [Amphotericin B]
CC50 at 24 h [1]: 104 µM | Parasite counts, Treated (AMB) (Leishmania donovani; 3,125 cells per well): 0.1±0.1 photons/sec | Reduction in parasite burden (Leishmania donovani; 3,125 cells per well): 83.5% | Parasite counts, Treated (AMB) (Leishmania donovani; 6,250 cells per well): 0.2±0.0 photons/sec | Reduction in parasite burden (Leishmania donovani; 6,250 cells per well): 86.3% | Parasite counts, Treated (AMB) (Leishmania donovani; 12,500 cells per well): 0.4±0.3 photons/sec | Reduction in parasite burden (Leishmania donovani; 12,500 cells per well): 86.2% | Parasite counts, Treated (AMB) (Leishmania donovani; 25,000 cells per well): 0.7±0.0 photons/sec | Reduction in parasite burden (Leishmania donovani; 25,000 cells per well): 86.4% | Parasite counts, Treated (AMB) (Leishmania donovani; 50,000 cells per well): 2.5±0.5 photons/sec | Reduction in parasite burden (Leishmania donovani; 50,000 cells per well): 82.3% | Parasite counts, Treated (AMB) (Leishmania donovani; 100,000 cells per well): 8.5±0.2 photons/sec | Reduction in parasite burden (Leishmania donovani; 100,000 cells per well): 83.3% | Parasite counts, Treated (AMB) (Leishmania donovani; 200,000 cells per well): 34.8±3.7 photons/sec | Reduction in parasite burden (Leishmania donovani; 200,000 cells per well): 76.0% | EC50 [2, 8]: 0.09 ± 0.03 µM | EC50 ([2]; Leishmania donovani, ex vivo model, amphotericin B present in the library (in DMSO vehicle), read-out: EC50): 10.7 ± 0.9 µM | Splenocyte viability (splenocytes [4]): no loss of splenocyte viability | EC50 [3, 9]: 0.11 ± 0.01 µM

CCN(CC)C(=S)SSC(=S)N(CC)CC [Disulfiram]
CC50 at 24 h [1]: 53 µM | EC50 [2, 8]: 0.31 ± 0.03 µM | EC50 [2, 7]: 8.1 µM | EC50 [3, 9]: 0.16 ± 0.03 µM

OC(Cn1cncn1)(Cn1cncn1)c1ccc(F)cc1F [Fluconazole]
EC50 [2, 8]: > 250 µM | Activity in the ex vivo system (screen or EC50 determination) ([2]; transgenic L. donovani, ex vivo system): no activity | Outcome of library screening (significant Z score / hit) [5]: did not show a significant Z score | EC50 [3, 9]: > 250 µM

CCCCCCCCCCCCCCCCOP(=O)([O-])OCC[N+](C)(C)C [Miltefosine]
EC50 [2, 8]: 1.02 ± 0.08 µM | EC50 ([2]; Leishmania donovani, ex vivo model, freshly solubilized compound from commercial source, read-out: EC50): 1 µM | Anti-leishmanial activity, repeated testing ([2]; compound from the NCI chemical library): inactive | Outcome of library screening (significant Z score / hit) [5]: did not show a significant Z score | EC50 [3, 9]: 2.28 ± 0.21 µM

CC[C@@]1([C@@H]2O[C@@H]([C@H]3O[C@@](O)(CO)[C@H](C)C[C@@H]3C)C[C@@H]2C)CC[C@H]([C@]2(C)CC[C@]3(C[C@H](O)[C@@H](C)[C@@H]([C@@H](C)[C@@H](OC)[C@H](C)C(=O)O)O3)O2)O1 [Monensin A]
EC50 [2, 8]: 0.85 ± 0.68 µM | EC50 [3, 9]: 0.23 ± 0.15 µM

CNCCC=C1c2ccccc2CCc2ccccc21 [Nortriptyline]
EC50 [2, 8]: 6.03 ± 0.28 µM | EC50 [3, 9]: 2.65 ± 0.35 µM

N=C(N)c1ccc(OCCCCCOc2ccc(C(=N)N)cc2)cc1 [Pentamidine]
EC50 [2, 8]: 3.02 ± 0.34 µM | EC50 ([2]; Leishmania donovani, Splenocyte, ex vivo splenocytes system, read-out: EC50): 3 µM | Z score ([5]; 48 h, duplicate screen, hit threshold -1.96): −1.87 | Outcome of library screening (significant Z score / hit) [5]: did not show a significant Z score | EC50 [3, 9]: 0.89 ± 0.37 µM

CCN(CC)CCOc1ccc2c(c1)C(=O)c1cc(OCCN(CC)CC)ccc1-2 [Tilorone]
CC50 at 24 h ([1]; HepG2 cells, HepG2 cell line, 24 h, ATP luminescence, compound from screened library, read-out: HepG2 CC50 Mean): 46.8 µM | EC50 [2, 8]: 0.84 ± 0.47 µM | EC50 ([2]; Leishmania donovani, 48 h, ex vivo splenic explant, 48 h, luminometry, at least two experiments, compound from screened library, read-out: Ex vivo model EC50 Mean): 7.7 µM | Splenocyte viability (splenocytes [6]): no loss of splenocyte viability | EC50 [3, 9]: 1.48 ± 0.35 µM

Meglumine antimoniate
EC50 ([2]; 48 h of culture, luminometry, purchased compounds dissolved in DMSO, read-out: Ex vivo model EC50 (mean±SE)): 270 ± 57.5 µM | EC50 ([3]; hamster peritoneal macrophages infected in vitro, luminometry, purchased compounds): 146 ± 42 µM
